Measured values from paper PMC11313180 (International Journal of Molecular Sciences, 2024).
Read-outs that look alike come from different tables or passages of the source.

What was measured:
HDAC8 [1] = details: ref [21], cited from earlier work; for IC50: obtained by fitting Lechner et al. source data to a sigmoidal concentration–effect model, read-out: IC50 HDAC 8, Lechner et al.
HDAC8 [2] = biological target: T1, HDAC8 (Homo sapiens, UniProt Q9BY41); experiment: Enzyme HDAC inhibition assay, HDAC8
T1 sequence (Q9BY41 1-377): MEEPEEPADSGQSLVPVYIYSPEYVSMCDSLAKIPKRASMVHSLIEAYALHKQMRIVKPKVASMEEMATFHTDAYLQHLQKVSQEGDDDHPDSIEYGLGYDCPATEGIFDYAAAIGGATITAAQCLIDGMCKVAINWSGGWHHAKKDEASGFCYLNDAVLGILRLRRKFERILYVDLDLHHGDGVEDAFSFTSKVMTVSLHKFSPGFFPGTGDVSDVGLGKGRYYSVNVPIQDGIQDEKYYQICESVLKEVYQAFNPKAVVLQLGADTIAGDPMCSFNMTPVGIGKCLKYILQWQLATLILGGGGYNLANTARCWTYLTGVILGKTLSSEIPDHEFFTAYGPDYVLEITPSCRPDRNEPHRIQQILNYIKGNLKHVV
Excerpt: (§4) All human recombinant enzymes were purchased from Reaction Biology Corp. (Malvern, PA, USA).

HDAC6 [3] = details: ref [21], cited from earlier work
HDAC6 [4] = biological target: T2, HDAC6 (Homo sapiens, UniProt Q9UBN7); experiment: Enzyme HDAC inhibition assay, HDAC6
T2 sequence (Q9UBN7 1-1215): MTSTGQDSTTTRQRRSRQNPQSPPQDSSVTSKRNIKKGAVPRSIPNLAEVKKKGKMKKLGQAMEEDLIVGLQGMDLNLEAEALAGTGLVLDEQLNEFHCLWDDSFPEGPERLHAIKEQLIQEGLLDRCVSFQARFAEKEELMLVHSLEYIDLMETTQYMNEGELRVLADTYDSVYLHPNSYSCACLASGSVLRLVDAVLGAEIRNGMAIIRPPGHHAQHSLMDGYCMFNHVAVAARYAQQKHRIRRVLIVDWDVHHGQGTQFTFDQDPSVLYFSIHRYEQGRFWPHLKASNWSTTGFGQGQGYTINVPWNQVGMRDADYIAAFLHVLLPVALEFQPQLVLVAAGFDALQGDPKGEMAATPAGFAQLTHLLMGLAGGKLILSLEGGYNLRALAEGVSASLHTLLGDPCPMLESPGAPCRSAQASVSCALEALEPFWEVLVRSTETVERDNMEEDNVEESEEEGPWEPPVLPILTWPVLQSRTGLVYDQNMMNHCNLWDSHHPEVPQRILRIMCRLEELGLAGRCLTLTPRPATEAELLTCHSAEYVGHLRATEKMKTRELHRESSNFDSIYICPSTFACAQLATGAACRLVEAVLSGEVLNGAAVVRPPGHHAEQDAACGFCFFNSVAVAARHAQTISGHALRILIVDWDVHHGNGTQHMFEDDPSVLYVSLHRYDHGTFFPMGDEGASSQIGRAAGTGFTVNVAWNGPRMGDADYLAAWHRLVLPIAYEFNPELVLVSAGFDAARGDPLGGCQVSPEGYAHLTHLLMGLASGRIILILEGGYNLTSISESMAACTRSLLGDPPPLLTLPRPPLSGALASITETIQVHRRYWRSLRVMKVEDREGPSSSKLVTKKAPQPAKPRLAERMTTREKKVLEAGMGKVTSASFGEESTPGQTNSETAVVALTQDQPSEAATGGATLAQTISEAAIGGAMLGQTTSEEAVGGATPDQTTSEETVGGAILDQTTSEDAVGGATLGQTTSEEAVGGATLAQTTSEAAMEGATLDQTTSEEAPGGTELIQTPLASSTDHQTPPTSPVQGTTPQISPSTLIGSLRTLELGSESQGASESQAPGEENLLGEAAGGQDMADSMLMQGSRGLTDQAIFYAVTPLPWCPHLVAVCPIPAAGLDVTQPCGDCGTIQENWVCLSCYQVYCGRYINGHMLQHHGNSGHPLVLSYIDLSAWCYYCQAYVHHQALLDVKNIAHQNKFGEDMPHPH
Excerpt: as §4

HDAC4 = biological target: T3, HDAC4 (Homo sapiens, UniProt P56524); experiment: Enzyme HDAC inhibition assay, HDAC4; type: biochemical; details: IC50 ± SEM; three experiments in duplicates; read-out: IC50 HDAC 4
T3 construct: purchased Reaction Biology Corp. KDA-21-279
Excerpt: as §4

HDAC2 [5] = details: obtained by fitting Lechner et al. source data to a sigmoidal concentration–effect model; ref [21]; read-out: IC50 HDAC 2, Lechner et al.; cited from earlier work
HDAC2 [6] = biological target: HDAC2 (Homo sapiens, UniProt Q92769); experiment: Enzyme HDAC inhibition assay, HDAC2
Excerpt: as §4

[7] = tested on: class I/IIb HDAC activity in T47D cells; experiment: cells; type: cell-based, human; details: 48 h, read-out: IC50 Cellular HDAC Assay
Experimental: The cellular HDAC assay was performed based on an assay published by Heltweg and Jung and Ciossek et al.. Breast cancer cell line T-47D (12,000 c/w) was seeded in 96-well tissue culture plates (Corning, Kaiserslautern, Germany) in a total volume of 90 µL of culture medium. After 24 h, cells were incubated 48 h with increasing concentrations of a-lipoic acid. The reaction was started by adding 10 µL of 3 mM Boc-Lys(Ac)-AMC (Bachem, Bubensdorf, Switzerland) and again incubated for 3 h under cell culture conditions. […]

MDA-MB-231 = experiment: MTT cell viability assay, MDA-MB-231; type: cell-based, human; details: 120 h; IC50 ± SEM; read-out: IC50 MDA-MB-231, 120 h MTT assay
Experimental: MTT assays were performed as previously described. Cell numbers plated differed depending on each incubation time: MDA-MB-231 5000 c/w, MCF-7 5000 c/w (72 h) and 3000 c/w (120 h), T-47D 10,000 c/w (72 h) and 5000 c/w /120 h). After incubation time, medium was replaced by MTT (solution of 5 mg/mL 3-(4,5-dimethylthiazol-2-yl)-2,5-diphenyl-tetrazoliumbromidin in phosphate buffered saline, Serva, Heidelberg, Germany). After 10 min (MCF-7), 20 min (MDA-MB-231), and 30 min (T47D) and dissolving in DMSO (VWR, Langenfeld, Germany), absorbance was measured at 544 nm and 690 nm in a FLUOstar microplate reader (BMG LabTech, Offenburg, Germany).

MCF-7 [8] = experiment: MTT cell viability assay, MCF-7; type: cell-based, human; details: 120 h; IC50 ± SEM; read-out: IC50 MCF-7, 120 h MTT assay
Experimental: (§1) MTT assays were performed as previously described. […] After incubation time, medium was replaced by MTT (solution of 5 mg/mL 3-(4,5-dimethylthiazol-2-yl)-2,5-diphenyl-tetrazoliumbromidin in phosphate buffered saline, Serva, Heidelberg, Germany).

T47D [9] = experiment: MTT cell viability assay, T47D; type: cell-based, human; details: 120 h; IC50 ± SEM; read-out: IC50 T-47D, 120 h MTT assay
Experimental: as §1

MCF-7 [10] = experiment: Immunoblotting, MCF-7; type: cell-based, human; details: 48 h
Experimental: (§2) A quantity of 20 or 40 µg of total protein as well as, from PageRuler Prestained Protein Ladder, 10–180 kDA (Thermo Scientific, Wesel, Germany), were resolved by SDS-Page (12% polyacrylamide gel) and transferred to polyvinylidene fluoride membrane (Millipore Corporation, Billerica, MA, USA). Blots were incubated with primary antibodies against acetylated a -tubulin (Cat. No. sc-23950), a -tubulin (Cat. No. sc-8035) (Santa Cruz Biotechnology, Heidelberg, Germany), acetyl histone h3 (Cat. No. 39140) and histone H3 (Cat. No. NB100-1669), ß-actine (Cat. No. sc-47778), p21 (AF1047), c-myk (Cat. No. MAB3696), APAF1 (Cat. No. MAB868), BIM (Cat. No. NBP1-76936), FOXO1 (Cat. No. C29H4), BCL-2 (Cat. No. AF810), and survivin (Cat. No. AF886). After another one-hour incubation with the appropriate HRP-conjugated secondary antibody, proteins were visualized by Intas Imager (Intas, Göttingen, Germany) using luminol reagent (Santa Cruz Biotechnology, Heidelberg, Germany).

[11] = tested on: caspase 3/7 in MCF-7 cells; experiment: Caspase 3/7 activation assay, MCF-7; type: cell-based, human; details: 0.5 mM or 1 mM, 24 h
Experimental: (§3) To analyze the compound-induced activation of capases 3 and 7, the CellEvent caspase 3/7 green detection reagent (Thermo Scientific, Wesel, Germany) was used according to the manufacturer’s instructions. […] After 24 h incubation, medium was removed, and cells were stained with 50 µL of CellEvent caspase 3/7 green detection reagent (2 µM in PBS supplemented with 5% heat-inactivated FBS). Cells were incubated for 30 min at 37 °C in a humidified incubator before imaging by using the Thermo Fisher ArrayScan XTI high content screening (HCS) system with a 10× magnification (Thermo Scientific). Hoechst 33342 was added for nuclei staining.

[12] = tested on: caspase 3/7 in T47D cells; experiment: Caspase 3/7 activation assay, T47D; type: cell-based, human; details: 0.5 mM or 1 mM, 24 h
Experimental: as §3

T47D [13] = experiment: Immunoblotting, T47D; type: cell-based, human; details: 48 h
Experimental: as §2

[14] = obtained by fitting Lechner et al. source data to a sigmoidal concentration–effect model, read-out: IC50 HDAC 6, Lechner et al.

HDAC2 (Homo sapiens, UniProt Q92769), sequence (Q92769 whole entry): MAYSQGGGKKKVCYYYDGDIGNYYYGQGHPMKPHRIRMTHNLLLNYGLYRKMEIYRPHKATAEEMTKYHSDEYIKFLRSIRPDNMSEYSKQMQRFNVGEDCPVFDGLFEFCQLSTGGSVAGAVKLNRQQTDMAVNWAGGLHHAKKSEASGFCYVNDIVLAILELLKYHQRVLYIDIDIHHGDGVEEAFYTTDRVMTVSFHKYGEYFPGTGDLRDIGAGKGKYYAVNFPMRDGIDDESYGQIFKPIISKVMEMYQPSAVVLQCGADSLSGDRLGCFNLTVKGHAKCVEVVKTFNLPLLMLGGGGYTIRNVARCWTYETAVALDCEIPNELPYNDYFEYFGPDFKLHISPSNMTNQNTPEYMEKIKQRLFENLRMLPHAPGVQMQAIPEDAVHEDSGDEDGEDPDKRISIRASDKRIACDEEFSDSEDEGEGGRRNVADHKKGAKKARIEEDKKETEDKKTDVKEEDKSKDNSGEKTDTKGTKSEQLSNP
T3 sequence (P56524 whole entry): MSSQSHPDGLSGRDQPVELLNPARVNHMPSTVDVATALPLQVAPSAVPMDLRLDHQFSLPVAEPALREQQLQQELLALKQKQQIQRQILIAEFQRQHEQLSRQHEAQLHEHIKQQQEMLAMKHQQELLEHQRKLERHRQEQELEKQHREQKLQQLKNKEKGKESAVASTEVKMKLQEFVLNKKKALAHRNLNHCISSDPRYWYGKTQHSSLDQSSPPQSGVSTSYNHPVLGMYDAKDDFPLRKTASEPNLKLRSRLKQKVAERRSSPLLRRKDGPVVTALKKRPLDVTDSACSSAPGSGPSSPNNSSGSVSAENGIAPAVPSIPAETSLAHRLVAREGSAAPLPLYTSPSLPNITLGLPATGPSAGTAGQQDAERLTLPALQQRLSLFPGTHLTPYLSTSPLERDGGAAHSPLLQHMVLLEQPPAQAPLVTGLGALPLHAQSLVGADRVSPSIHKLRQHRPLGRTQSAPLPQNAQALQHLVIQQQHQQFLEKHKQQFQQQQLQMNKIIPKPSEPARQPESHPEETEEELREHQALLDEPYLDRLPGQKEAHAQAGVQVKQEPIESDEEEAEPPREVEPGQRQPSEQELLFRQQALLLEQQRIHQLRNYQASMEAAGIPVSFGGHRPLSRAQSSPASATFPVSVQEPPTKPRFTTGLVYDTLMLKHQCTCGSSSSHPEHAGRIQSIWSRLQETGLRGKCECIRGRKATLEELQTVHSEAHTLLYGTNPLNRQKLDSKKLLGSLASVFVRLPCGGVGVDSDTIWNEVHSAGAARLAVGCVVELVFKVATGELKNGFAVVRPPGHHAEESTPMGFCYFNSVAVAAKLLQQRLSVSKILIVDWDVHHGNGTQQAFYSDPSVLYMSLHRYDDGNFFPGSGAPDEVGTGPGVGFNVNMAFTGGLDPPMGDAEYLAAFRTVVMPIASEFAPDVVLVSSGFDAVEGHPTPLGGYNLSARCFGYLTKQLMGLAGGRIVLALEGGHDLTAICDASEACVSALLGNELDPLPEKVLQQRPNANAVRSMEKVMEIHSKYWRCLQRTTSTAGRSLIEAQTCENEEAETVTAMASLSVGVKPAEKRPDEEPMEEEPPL

O=C(O)CCCCC(S)CCS (racemic)
IC50 (HDAC8 [1]): 22.3 µM
more active than rac-α-lipoic acid at HDAC8, Lechner et al.'s study (HDAC8 [1]): at least 5 fold
IC50 (HDAC8 [2]): 51.5 ± 10.5 µM
IC50 (HDAC6 [3]; [14]): 1.7 µM
more active than rac-α-lipoic acid at HDAC6, Lechner et al.'s study (HDAC6 [3]): around 100 fold
IC50 (HDAC6 [3]; read-out: IC50 at HDAC6 as reported by Lechner et al.): ~1 µM
IC50 (HDAC6 [4]): 6.48 ± 2.11 µM
HDAC6 preference (selectivity for HDAC6) (HDAC6 [4]; versus HDAC2, 4 and 8, from Table 1): 8 fold
IC50 (HDAC4): 177 ± 17.5 µM
IC50 (HDAC2 [5]): 27.9 µM
IC50 (HDAC2 [6]): 98.1 ± 35.6 µM

O=C(O)CCCCC1CCSS1 (racemic) [rac-α-lipoic acid]
IC50 (HDAC8 [1]): 109 µM
IC50 (HDAC8 [2]; read-out: IC50 HDAC 8, IC50 ± SEM, three experiments in duplicates): 464 ± 83 µM
IC50 (HDAC6 [3]; [14]): 191 µM
IC50 ([7]; T47D cells, substrate Boc-Lys-AC-AMC, IC50 ± SEM, one experiment in triplicates): 1190 ± 67 µM
IC50 (MDA-MB-231): 275 ± 22.5 µM
IC50 (MCF-7 [8]): 454 ± 15.2 µM
IC50 (HDAC6 [4]; read-out: IC50 HDAC 6, IC50 ± SEM, three experiments in duplicates): 15.3 ± 4.6 µM
IC50 (T47D [9]): 373 ± 13.9 µM
IC50 (HDAC4): 262 ± 37.8 µM
IC50 (HDAC2 [5]): 391 µM
IC50 (HDAC2 [6]; read-out: IC50 HDAC 2, IC50 ± SEM, three experiments in duplicates): 208 ± 4.2 µM

O=C(CCCCCCC(=O)Nc1ccccc1)NO [vorinostat]
IC50 ([7]; Homo sapiens, T47D): 0.79 ± 0.07 µM

O=C(O)CCCCC1CCSS1 (stereo not drawn) [α-lipoic acid]
expression of BCL-2, MCF-7 (MCF-7 [10]): loss or massive reduction in expression
caspase activation, MCF-7 [11]: 5–15%
caspase activation, T47D [12]: 5–15%
expression of BCL-2, T47D (T47D [13]): loss or massive reduction in expression
